Entries after “also recorded” stand apart in the source; their conditions may differ. Ends that are not written are not given here.
Columns and labels:
[1] = test system: HEK293 cells or Huh7 cells; experiment: In vitro transduction assay, AAV8/luc with peptides; format: cell-based, human; settings: 10000 vg AAV8/luc incubated with peptides 2 h at 4° C.; both cell lines; 48 h; vs AAV8 only
Protocol: In vitro transduction assay. At least 4-5 h prior to AAV transduction, cells were seeded in 48-well plates with a density of 1E+05 cells each well. Cells were infected with 1E+04 vector genomes (vg) of AAV8/luc virus per cell and harvested after 48 h. Luciferase activity was measured following manufacturer's instruction (Promega, Madison, WI).
The complex of AAV8 and peptides influences AAV8 transduction in vitro and in vivo. To identify the potential and functional peptides that enhanced AAV8 transduction, we screened several reported peptides as shown in Table 5 and Table 6. First, we tested the cytotoxicity of peptides at different concentrations on cells. […] After that, we performed the transduction assay in vitro. We incubated the 10000 vg AAV8/luc and peptides for 2 h at 4° C., and then applied the mixture to HEK293 cells or Huh7 cells. After 48 h, the cell lysate was collected for luciferase analysis.

[2] = biological target: T1, mouse TfR1 (Mus musculus, UniProt Q62351); experiment: Immunofluorescence assay on CHO-TRVB cells; format: binding; settings: 5-FAM-THR
T1 construct: expressed in transfected cells; host or cells: CHO-TRVB cells (devoid of endogenous TfR1)
T1 sequence (Q62351 whole entry): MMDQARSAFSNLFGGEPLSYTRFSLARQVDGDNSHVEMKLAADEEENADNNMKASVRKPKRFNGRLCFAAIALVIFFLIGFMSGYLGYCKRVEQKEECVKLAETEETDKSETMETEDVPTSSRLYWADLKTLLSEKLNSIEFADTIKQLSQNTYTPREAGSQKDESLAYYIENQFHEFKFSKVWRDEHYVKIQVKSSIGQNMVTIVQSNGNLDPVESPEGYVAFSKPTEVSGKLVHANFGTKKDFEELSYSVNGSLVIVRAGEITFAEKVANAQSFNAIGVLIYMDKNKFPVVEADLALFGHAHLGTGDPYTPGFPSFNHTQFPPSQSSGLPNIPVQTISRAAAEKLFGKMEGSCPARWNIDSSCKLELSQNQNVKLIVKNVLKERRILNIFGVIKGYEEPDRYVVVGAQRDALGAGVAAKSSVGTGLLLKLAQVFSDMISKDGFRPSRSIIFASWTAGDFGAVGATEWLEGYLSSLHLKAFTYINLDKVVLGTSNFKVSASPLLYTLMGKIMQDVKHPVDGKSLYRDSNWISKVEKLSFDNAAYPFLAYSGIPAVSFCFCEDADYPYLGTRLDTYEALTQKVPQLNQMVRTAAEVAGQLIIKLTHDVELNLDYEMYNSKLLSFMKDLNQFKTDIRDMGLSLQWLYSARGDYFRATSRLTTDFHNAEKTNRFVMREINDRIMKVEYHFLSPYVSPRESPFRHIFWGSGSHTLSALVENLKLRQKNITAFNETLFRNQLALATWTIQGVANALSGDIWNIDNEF
Protocol: Immunofluorescence. Plasmids mCherry-TFR-20 and mCherry-mTfR-20 were separately transfected into the 50-70% confluent CHO-TRVB cells grown on glass coverslips using lipofectamine 3000 reagent (Invitrogen, USA). After 48 h post-transfection, the coverslips were washed and incubated with 1 nM 5-FAM-THR at 37° C. for 1 h, then cells were acid-washed with 0.2 M glycine/HCl, pH 2.2, and fixed in 4% paraformaldehyde for 30 min at 4° C. Finally, DAPI was used at a 1:5,000 dilution for 5 min at RT. Coverslips were mounted and imaged on the Olympus IX-83 fluorescence microscope.

[3] = test system: C57BL/6 mice; experiment: In vivo luciferase imaging after retro-orbital injection of AAV8/luc with peptides; set-up: species or system mouse
Protocol: (§1) Animal study. […] Mice were administered with AAV8/Luc incubated with peptides via retro-orbital injection. Luciferase expression was imaged at the indicated time points using a Xenogen IVIS Lumina (Caliper Lifesciences, Waltham, MA) following intraperitoneal injection of D-luciferin substrate (Nanolight Pinetop, AZ). Bioluminescent images were analyzed using Living Image (PerkinElmer, Waltham, MA). At various time points after injection, blood was collected from the retro-orbital plexus, and the viral titers were tested by qPCR.

[4] = test system: C57BL/6 mice; experiment: Quantitation of luciferase expression in tissues; format: in vivo, mouse
Protocol: Quantitation of luciferase expression in tissues. Animals utilized for imaging studies were sacrificed after one-week post imaging work, and the tissues of the heart, liver, spleen, skeletal muscle and brain were collected, and were minced and homogenized in passive lysis buffer. Then the lysates were centrifuged at 10,000 rpm for 5 minutes to remove cellular debris. Supernatant was transferred to 96-well plates for luciferase activity analysis as described above. Total protein concentration in tissue lysates was measured using the Bradford assay (Bio-Rad Laboratories, Philadelphia, PA).

[5] = test system: C57BL/6 mice; experiment: Measurement of AAV genome copy number in tissue; format: in vivo, mouse
Protocol: Measurement of AAV genome copy number in tissue. Total gDNA from different minced tissues was isolated with the DNeasy blood & tissue kit (Qiagen, USA). Luciferase gene was measured by qPCR assay. Mouse-lamin gene served as an internal control.

[6] = test system: Huh7 or HEK293 cells; experiment: Neutralization assay (Nab titer); format: cell-based, human; settings: THR at different concentrations
Protocol: Neutralization assay. Huh7 or HEK293 cells were seeded in 48-well plates with a density of 5E+04 cells each well. The complex of AAV8/luc and different concentrations of THR was incubated at 4° C. for 2 h, then, two-fold dilutions of the mouse AAV8 sera were incubated with 1E+04vg of AAV8/luc virus or the complex of AAV8/luc and THR per cell for 1 h at 37° C. The final mixture was added into cells and incubated at 37° C. for 48 h. Cells were lysed with passive lysis buffer (Promega, Madison, WI) and luciferase activity was measured. Nab titers were defined as the highest dilution for which luciferase activity was 50% lower than serum-free controls.

[7] = test system: Huh7 cells; experiment: AAV8 binding assay; format: cell-based, human; settings: 4° C., 1 h; genome copy number normalized to GAPDH
Protocol: AAV8 binding assay. The complex of AAV8/luc and THR or human apo-transferrin protein (Sigma, 616395, USA) was incubated at 4° C. for 2 h, 10000 vg AAV8/luc virus alone or the complex was added into Huh7 cells at a cell density of 4E+05 per well for 1 h at 4° C., and then washed with DPBS 3 times. Finally, genome DNA (gDNA) was extracted from the cells with the DNeasy blood & tissue kit (Qiagen, USA) and was quantified by qPCR with luciferase primers and reference GAPDH primers.

[8] = test system: human transferrin binding to AAV8 virions; experiment: AAV8 competitive binding assay; settings: pre-incubation with AAV8, then human transferrin; pull down with transferrin antibody, qPCR
Protocol: AAV8 competitive binding assay. For THR competitive binding analysis, 10 ul of Protein G resin (Thermo, USA) per system was incubated with 1 ug of human transferrin antibody or goat IgG antibody control at 4° C. overnight. […] After that, the mixture was added to the complex of protein G resin and transferrin antibody and incubated at 4° C. overnight. Finally, the complex was stringently washed three times with cold DPBS. DNA from the complex was extracted and applied for qPCR to determine AAV genome copy number per cell using luc specific primers.
To investigate whether THR also binds to the same location of AAV8 virions as human serum proteins, we performed a competitive assay. […] The transferrin antibody was used to pull down transferrin bound AAV8 virions and AAV8 gene copy number was measured by qPCR.

[9] = AAV9 brain transduction with THR after systemic administration; format: in vivo
[10] = test system: C57BL/6 mice; settings: 1E+11 vg each mouse, intravenous; 5 min to 48 h; vs AAV8/luc
Protocol: as §1

THRPPMWSPVWP-NH2 [THR]
AAV8 transduction (luciferase) [1]: significantly enhanced AAV8 transduction; also recorded: the most significant increase of AAV8 transduction
interaction with mouse TfR1 [2]: could interact with mouse TfR1
AAV8 transduction in the whole body, especially brain (imaging) ([3]; 0.1 mM peptide + 5E+10 vg AAV8/luc, 7th day): significantly increased AAV8 transduction overall; also recorded: significantly enhances AAV8 transduction in vivo, especially in the brain
transgene expression in the liver (imaging) ([3]; 0.1 mM peptides + 5E+10 vg AAV8/luc, retro-orbital vein, 7th day): higher
AAV8 transduction in whole body and brain (imaging), high dose ([3]; 1E+11 vg each mouse, AAV8-0.1 mM THR): enhanced the AAV8 transduction in both the whole body and the brain
AAV8 liver transduction (imaging), THR mixed just before injection ([3]; AAV8/0.1 mM THR, no pre-incubation): blocked AAV8 liver transduction
luciferase imaging signal, dose dependence ([3]; different concentrations of THR + 5E+10 particles AAV8/luc): stronger imaging signals; also recorded: enhances the AAV8 transduction in vivo in a dose-dependent manner
AAV8 brain transduction (luc expression and genome number) ([4]; 0.1 mM peptides + 5E+10 vg AAV8/luc): increased AAV8 transduction in the brain
luciferase expression and virus distribution in the brain, THR mixed just before injection ([4]; AAV8/0.1 mM THR, no pre-incubation, vs AAV8): did not observe a significant difference
AAV genome copy number in the brain ([5]; 0.1 mM peptides + 5E+10 vg AAV8/luc, vs AAV8 only): much higher
gene copy number in liver, brain and spleen ([5]; three groups with different THR concentrations + 5E+10 particles AAV8/luc): significantly higher enhancement than the control group; also recorded: more vector genome copy number in the brain
AAV8/luc neutralization titer (Nab titer) [6]: did not interfere with the AAV8/luc neutralization titer; also recorded: does not interfere with the AAV8 biology
AAV8 virions binding to the Huh7 cells surface [7]: dramatically increased AAV8 virions binding; also recorded: enhanced the binding ability of AAV8 dose dependently
inhibition of transferrin binding to AAV8 [8]: competes with human transferrin binding to AAV8
AAV9 brain transduction after systemic administration [9]: failed to enhance AAV9 brain transduction
blood clearance of AAV8 [10]: decreasing the AAV8 clearance in the blood

— patent US12281335B2, “Methods and compositions for delivery of viral vectors across the blood-brain barrier” (priority 2017, dated 2025)
